# In patent publication US20230243815A1, “AN APPARATUS COMPRISING MICROFLUIDIC PROTEIN-BASED SENSORS AND METHODS OF USING SAME” (UNIVERSITY OF MARYLAND, BALTIMORE COUNTY, priority 2020, published 2023):
# Target: branched-chain amino acid binding protein (Escherichia coli, UniProt P0AD96)
# Experiment: Binding of amino acids to branched-chain amino acid binding protein biosensor (microfluidic column sensor)
# Conditions: binding affinity of the analyte to the branched-chain amino acid binding protein biosensor; FIG. 9
# From the text: FIG. 9(A) illustrates amino acids that bind at varying affinities to a microfluidic column biosensor, where F/F0 is the fluorescence intensity ratio.
# Microfluidic column sensors are also useful when the biosensor detects more than one analyte but with different binding affinities. […] This is shown in FIG. 9, where a mixture of these amino acids can be separately detected over the length of the microfluidic column.
# Sequence of branched-chain amino acid binding protein (P0AD96 24-367): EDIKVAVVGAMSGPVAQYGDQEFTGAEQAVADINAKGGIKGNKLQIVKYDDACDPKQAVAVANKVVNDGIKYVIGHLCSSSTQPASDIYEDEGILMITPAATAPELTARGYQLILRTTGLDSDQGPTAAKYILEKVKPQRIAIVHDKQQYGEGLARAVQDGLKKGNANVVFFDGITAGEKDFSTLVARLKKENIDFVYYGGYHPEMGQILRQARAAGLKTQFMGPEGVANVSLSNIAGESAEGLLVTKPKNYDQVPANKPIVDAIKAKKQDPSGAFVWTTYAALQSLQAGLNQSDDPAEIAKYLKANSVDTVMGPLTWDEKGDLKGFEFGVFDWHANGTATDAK
row,Structure (SMILES),Kd
1,CC[C@H](C)[C@H](N)C(=O)O [isoleucine],68 µM
2,CC(C)[C@H](N)C(=O)O [valine],135 µM
3,CC(C)C[C@H](N)C(=O)O [leucine],58 µM
